{"source": "paper PMC4396990", "about": "“Targeting Vascular Endothelial Growth Factor Receptor 2 and Protein Kinase D1 Related Pathways by a Multiple Kinase Inhibitor in Angiogenesis and Inflammation Related Processes In Vitro” (PLoS ONE, 2015)", "format_in_all_cases": "biochemical", "key": {"[1]": {"molecular_target": "T1, VEGFR2 (Homo sapiens, UniProt P35968)", "T1 construct": "gene KDR", "T1 sequence (P35968 20-1356)": "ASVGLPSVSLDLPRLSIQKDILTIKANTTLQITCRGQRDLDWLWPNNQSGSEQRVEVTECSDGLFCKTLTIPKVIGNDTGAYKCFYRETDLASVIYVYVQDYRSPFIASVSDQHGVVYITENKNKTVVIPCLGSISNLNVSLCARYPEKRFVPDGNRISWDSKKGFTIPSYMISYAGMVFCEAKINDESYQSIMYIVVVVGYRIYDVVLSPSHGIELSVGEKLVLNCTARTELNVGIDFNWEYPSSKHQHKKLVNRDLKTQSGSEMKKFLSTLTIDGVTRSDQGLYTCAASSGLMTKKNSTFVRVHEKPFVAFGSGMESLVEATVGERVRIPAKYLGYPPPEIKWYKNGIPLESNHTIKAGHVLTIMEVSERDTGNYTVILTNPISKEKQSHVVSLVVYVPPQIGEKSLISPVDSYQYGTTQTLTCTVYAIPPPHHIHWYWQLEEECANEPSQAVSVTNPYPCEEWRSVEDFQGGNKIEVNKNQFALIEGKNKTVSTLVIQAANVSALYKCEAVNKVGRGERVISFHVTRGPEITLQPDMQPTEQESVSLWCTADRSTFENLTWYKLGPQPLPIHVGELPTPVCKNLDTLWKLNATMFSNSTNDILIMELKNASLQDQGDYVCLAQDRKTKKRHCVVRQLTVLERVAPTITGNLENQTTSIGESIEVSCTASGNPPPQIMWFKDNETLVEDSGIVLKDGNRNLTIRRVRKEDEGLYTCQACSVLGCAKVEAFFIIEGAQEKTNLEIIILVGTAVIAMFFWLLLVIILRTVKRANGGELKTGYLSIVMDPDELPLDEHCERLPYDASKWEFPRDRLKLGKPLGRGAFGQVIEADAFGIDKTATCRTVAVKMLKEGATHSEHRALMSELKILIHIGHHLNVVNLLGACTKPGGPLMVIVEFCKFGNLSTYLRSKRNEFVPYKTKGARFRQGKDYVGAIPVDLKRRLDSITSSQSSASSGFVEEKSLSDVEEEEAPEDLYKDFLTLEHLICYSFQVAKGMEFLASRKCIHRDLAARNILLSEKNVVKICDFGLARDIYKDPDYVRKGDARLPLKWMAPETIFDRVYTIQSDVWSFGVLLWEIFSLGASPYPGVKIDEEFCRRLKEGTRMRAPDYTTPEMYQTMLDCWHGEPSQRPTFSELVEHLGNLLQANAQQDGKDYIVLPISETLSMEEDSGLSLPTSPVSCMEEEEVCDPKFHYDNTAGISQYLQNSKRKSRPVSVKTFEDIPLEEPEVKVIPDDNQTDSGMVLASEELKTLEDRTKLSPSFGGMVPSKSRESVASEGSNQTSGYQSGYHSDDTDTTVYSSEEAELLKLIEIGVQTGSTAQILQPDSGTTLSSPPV", "experiment": "recombinant kinase assay (Transcreener ADP detection)"}, "[2]": {"molecular_target": "T2, PKD2 (Homo sapiens, UniProt Q9BZL6)", "T2 construct": "gene PRKD2", "T2 sequence (Q9BZL6 1-878)": "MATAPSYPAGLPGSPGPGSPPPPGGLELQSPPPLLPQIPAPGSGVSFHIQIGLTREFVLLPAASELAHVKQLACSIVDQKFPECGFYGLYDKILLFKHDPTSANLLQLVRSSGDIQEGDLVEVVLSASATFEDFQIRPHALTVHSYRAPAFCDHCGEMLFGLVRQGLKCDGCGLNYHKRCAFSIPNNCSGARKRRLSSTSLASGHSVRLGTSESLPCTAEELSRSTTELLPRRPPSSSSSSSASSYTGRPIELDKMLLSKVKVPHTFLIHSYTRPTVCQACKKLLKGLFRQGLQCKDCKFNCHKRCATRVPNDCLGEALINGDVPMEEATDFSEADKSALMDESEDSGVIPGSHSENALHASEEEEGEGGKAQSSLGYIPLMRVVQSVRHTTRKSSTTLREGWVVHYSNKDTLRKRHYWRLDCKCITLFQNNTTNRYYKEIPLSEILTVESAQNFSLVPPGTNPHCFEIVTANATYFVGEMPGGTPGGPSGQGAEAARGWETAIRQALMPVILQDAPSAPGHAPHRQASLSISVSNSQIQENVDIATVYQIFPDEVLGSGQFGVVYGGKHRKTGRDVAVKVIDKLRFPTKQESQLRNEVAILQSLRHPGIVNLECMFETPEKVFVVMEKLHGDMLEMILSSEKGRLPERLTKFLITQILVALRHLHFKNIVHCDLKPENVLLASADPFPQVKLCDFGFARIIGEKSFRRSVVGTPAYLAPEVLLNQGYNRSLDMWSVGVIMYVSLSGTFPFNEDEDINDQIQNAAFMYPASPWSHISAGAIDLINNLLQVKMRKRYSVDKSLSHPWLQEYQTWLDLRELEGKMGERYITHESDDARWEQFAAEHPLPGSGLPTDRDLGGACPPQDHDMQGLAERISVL", "experiment": "kinase selectivity study (SignalChem) at single […] concentration"}, "[3]": {"molecular_target": "T3, VEGFR3 (Homo sapiens, UniProt P35916)", "T3 construct": "gene FLT4", "T3 sequence (P35916 25-1363)": "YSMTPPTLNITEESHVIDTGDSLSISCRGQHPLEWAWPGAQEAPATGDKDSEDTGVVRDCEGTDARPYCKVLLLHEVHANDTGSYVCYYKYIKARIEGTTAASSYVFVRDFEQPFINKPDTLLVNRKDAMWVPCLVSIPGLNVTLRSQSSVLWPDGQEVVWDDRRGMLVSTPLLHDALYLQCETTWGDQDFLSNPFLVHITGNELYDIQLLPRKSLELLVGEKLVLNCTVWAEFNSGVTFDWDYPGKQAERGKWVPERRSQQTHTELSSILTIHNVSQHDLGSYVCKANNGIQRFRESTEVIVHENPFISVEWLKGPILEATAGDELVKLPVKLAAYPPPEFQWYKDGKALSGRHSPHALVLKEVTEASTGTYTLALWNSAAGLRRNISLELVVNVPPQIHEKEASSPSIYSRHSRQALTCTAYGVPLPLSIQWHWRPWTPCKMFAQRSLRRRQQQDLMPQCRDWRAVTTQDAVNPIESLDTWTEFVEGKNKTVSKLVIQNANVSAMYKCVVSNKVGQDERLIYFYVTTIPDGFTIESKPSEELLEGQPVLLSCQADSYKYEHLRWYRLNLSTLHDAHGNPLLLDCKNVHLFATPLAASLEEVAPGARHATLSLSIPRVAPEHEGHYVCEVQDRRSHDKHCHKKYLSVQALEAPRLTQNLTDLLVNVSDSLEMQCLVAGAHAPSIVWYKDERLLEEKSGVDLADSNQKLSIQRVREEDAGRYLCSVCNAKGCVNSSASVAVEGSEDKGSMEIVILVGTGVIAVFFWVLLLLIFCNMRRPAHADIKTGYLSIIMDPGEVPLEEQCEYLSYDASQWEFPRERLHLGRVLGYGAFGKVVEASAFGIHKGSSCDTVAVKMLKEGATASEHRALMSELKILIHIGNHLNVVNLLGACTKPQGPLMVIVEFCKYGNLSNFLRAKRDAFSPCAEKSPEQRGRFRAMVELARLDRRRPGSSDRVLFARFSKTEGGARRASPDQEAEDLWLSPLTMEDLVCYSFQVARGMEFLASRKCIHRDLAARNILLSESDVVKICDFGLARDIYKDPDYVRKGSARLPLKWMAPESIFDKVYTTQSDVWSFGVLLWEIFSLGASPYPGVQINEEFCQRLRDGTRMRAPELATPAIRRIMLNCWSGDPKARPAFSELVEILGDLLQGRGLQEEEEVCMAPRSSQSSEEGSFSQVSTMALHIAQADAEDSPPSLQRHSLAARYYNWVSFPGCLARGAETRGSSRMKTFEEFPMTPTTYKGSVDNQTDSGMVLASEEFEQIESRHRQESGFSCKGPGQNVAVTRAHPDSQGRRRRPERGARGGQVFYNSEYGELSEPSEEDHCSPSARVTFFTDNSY", "experiment": "recombinant kinase assay (ProQinase) at single […] concentration"}, "[4]": {"molecular_target": "T4, VEGFR1 (Homo sapiens, UniProt P17948)", "T4 construct": "gene FLT1", "T4 sequence (P17948 27-1338)": "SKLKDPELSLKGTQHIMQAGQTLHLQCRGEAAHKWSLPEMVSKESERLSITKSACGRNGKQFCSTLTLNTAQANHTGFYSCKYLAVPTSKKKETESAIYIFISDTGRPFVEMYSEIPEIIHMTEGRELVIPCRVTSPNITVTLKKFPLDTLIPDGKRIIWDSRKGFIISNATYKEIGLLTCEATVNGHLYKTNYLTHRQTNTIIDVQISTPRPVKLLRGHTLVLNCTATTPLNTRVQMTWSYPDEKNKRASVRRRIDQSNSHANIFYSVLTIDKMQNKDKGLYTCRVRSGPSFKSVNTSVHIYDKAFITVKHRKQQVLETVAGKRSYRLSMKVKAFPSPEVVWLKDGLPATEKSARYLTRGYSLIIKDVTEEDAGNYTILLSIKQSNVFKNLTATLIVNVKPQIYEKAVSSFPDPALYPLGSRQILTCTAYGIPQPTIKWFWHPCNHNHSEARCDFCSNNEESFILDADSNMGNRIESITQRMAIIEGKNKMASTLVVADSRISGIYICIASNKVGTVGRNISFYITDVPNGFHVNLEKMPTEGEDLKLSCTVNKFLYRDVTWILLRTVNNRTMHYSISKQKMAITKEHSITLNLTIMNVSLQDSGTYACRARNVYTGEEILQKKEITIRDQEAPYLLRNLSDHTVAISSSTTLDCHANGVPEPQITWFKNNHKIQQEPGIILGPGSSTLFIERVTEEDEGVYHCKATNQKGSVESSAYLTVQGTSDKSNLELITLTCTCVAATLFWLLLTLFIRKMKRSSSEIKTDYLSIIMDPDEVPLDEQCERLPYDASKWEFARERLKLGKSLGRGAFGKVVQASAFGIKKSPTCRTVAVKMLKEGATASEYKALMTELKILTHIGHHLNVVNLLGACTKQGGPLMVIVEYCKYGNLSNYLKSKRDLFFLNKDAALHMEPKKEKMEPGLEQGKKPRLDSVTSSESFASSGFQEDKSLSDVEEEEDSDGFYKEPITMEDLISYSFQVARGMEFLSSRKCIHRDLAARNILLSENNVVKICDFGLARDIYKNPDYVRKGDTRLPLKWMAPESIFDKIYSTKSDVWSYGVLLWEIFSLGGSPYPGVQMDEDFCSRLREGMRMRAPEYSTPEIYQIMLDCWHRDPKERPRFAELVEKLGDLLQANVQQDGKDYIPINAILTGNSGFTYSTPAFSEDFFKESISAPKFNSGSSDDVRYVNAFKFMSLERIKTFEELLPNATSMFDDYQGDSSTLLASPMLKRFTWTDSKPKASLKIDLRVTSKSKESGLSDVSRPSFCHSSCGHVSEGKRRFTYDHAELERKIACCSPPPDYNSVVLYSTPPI", "experiment": "recombinant kinase assay (ProQinase) at single […] concentration"}, "[5]": {"molecular_target": "T5, PKD1 (Homo sapiens, UniProt Q15139)", "T5 construct": "gene PRKD1", "T5 sequence (Q15139 1-912)": "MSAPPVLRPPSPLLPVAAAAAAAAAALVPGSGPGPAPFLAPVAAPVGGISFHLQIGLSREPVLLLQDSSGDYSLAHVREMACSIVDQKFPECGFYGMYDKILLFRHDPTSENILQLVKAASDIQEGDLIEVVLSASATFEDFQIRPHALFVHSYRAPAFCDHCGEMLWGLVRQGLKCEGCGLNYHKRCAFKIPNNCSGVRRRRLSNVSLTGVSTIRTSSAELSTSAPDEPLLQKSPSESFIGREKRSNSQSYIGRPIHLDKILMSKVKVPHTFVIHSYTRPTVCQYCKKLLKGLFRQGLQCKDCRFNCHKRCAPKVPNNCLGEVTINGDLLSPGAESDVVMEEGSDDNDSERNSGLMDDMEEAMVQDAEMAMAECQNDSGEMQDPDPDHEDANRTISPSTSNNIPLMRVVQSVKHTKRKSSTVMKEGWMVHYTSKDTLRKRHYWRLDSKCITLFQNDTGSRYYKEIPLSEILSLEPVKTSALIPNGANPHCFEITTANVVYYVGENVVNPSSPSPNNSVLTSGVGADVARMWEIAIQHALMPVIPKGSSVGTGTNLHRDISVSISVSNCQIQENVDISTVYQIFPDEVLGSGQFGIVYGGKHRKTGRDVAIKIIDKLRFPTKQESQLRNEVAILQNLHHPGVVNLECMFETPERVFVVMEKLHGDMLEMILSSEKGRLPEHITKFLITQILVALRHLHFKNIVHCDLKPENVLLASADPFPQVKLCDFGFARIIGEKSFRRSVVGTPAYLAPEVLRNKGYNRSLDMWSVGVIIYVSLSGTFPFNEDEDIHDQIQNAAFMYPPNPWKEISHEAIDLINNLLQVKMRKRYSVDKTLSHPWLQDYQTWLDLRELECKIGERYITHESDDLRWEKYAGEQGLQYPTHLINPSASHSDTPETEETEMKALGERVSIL", "experiment": "recombinant kinase assay (IMAP fluorescence polarization, TAMRA-peptide)"}}, "note": "pIC50: −log10 of the molar value."}
{"compound": "CCn1c(=O)ccc2cnc(Nc3ccc(N4CCN(C)CC4)cc3)nc21", "note": "[VCC251801]", "values": [{"measurement": "pIC50", "setting": "[1]", "value": 7.16}, {"measurement": "kinase selectivity study (SignalChem) at single 5 μM concentration", "setting": "[2]", "value": "it showed moderate inhibitory effect against the other PKD isoform, PKD2"}, {"measurement": "recombinant kinase assay (ProQinase) at single 1 μM concentration", "setting": "[3]", "value": "In this selectivity study, VCC251801 blocked both VEGFR1 and VEGFR3 activation"}, {"measurement": "recombinant kinase assay (ProQinase) at single 1 μM concentration", "setting": "[4]", "value": "In this selectivity study, VCC251801 blocked both VEGFR1 and VEGFR3 activation"}, {"measurement": "pIC50", "setting": "[5]", "value": 7.55}]}
